Read-outs that look alike come from different tables or passages of the source.
Assays:
Type in all cases: biochemical
HIF-PHD2 = target: T1, HIF-PHD2 (Homo sapiens, UniProt Q9GZT9); test: Assay for HIF-PHD2 Catalytic Activity (PHD2 Binding Activity)
T1 construct: FLAG-tagged full length PHD2 expressed in and purified from baculovirus-infected Sf9 cells; FLAG; made in house; host or cells: baculovirus-infected Sf9 cells

HIF-PHD3 = HIF-PHD3 (Homo sapiens, UniProt Q9H6Z9); test: Inhibition of the catalytic activity of HIF-PHD3; settings: comparison compounds of WO 2008/030412; read-out: IC50 (nM) HIF-PHD-3
Method: (§1) To each well of a 96-well plate was added 1 μL of test compound in DMSO and 20 μL of assay buffer (50 mM Tris pH 7.4/0.01% Tween-20/0.1 mg/ml bovine serum albumin/10 μM ferrous sulfate/1 mM sodium ascorbate/20 μg/ml catalase) containing 0.15 μg/ml FLAG-tagged full length PHD2 expressed in and purified from baculovirus-infected Sf9 cells. After a […] at room temperature, the enzymatic reactions were initiated by the addition of 4 μL of substrates (final concentrations of 0.2 μM 2-oxoglutarate and 0.5 μM HIF-1α peptide biotinyl-[…]). After 2 hr at room temperature, the reactions were terminated and signals were developed by the addition of a 25 μL quench/detection mix to a final concentration of 1 mM ortho-phenanthroline, 0.1 mM EDTA, 0.5 nM anti-(His)6 LANCE reagent (Perkin-Elmer Life Sciences), 100 nM AF647-labeled streptavidin (Invitrogen), and 2 μg/ml (His)6-VHL complex (S. Tan(2001) Protein Expr. Purif. 21, 224-234). The ratio of time resolved fluorescence signals at 665 and 620 nm was determined, and percent inhibition was calculated relative to an uninhibited control sample run in parallel.
(§2) Inhibition of the catalytic activity of HIF-PHD1 and HIF-PHD3 can be determined similarly.

HIF-PHD1 = HIF-PHD1 (Homo sapiens, UniProt Q96KS0); test: Inhibition of the catalytic activity of HIF-PHD1; settings: comparison compounds of WO 2008/030412; read-out: IC50 (nM) HIF-PHD-1
Method: as §1, §2

[1] = read-out: PHD2 Binding Activity IC50

T1 sequence (Q9GZT9 whole entry): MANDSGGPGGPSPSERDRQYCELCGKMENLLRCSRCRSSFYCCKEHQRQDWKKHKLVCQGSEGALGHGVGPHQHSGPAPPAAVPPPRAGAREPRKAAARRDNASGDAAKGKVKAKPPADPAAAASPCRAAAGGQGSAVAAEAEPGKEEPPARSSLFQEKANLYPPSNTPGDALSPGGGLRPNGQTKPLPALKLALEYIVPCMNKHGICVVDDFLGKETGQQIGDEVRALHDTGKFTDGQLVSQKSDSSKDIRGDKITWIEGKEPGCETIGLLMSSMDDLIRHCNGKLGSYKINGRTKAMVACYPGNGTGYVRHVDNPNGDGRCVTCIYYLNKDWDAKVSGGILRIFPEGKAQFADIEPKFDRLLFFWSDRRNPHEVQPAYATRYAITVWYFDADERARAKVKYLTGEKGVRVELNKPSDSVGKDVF
Chain of HIF-PHD3 (Q9H6Z9 whole entry): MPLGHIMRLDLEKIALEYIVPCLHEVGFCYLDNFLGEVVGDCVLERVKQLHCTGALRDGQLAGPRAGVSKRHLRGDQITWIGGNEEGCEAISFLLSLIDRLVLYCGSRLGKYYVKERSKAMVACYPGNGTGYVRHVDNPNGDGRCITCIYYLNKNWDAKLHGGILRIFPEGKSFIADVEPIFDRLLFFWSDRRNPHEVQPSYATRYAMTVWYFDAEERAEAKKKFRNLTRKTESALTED
Chain of HIF-PHD1 (Q96KS0 whole entry): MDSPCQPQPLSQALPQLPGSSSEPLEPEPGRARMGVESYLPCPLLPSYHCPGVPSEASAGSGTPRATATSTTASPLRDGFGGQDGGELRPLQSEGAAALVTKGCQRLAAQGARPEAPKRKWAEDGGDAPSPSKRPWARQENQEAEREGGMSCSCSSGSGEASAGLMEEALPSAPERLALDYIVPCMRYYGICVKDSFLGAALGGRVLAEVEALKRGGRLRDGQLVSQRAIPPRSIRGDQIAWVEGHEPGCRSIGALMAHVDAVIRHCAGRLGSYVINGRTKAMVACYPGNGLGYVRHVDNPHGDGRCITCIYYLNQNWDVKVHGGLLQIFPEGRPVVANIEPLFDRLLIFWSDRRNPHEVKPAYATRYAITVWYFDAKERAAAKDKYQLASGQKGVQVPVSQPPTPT

In the case of CC(C)Oc1cccc(CN2CC[C@@]3(C[C@@H]2C)C(=O)N(c2ccccc2)C(=O)N3c2cccc(F)c2)c1 [Egbertson's Example 31], the IC50 (HIF-PHD2) is reported as > 10000 nM, the IC50 (HIF-PHD3) is reported as > 10000 nM and the IC50 (HIF-PHD1) is reported as > 10000 nM.

For CCOC(=O)c1ccc(N2C(=O)N(c3nccc(OC)n3)C3(CCN(Cc4ncccc4C)CC3)C2=O)cc1 [Compound 1-26, ethyl 4-{1-(4-methoxypyrimidin-2-yl)-8-[(3-methylpyridin-2-yl)methyl]-2,4-dioxo-1,3,8-triazaspiro[4.5]dec-3-yl}benzoate], the IC50 (HIF-PHD2) was 0.5 to 20 nM.

For CCOC(=O)C1CN(Cc2ncccc2C)CCC12C(=O)N(c1ccc(-c3ccccc3)cc1)C(=O)N2c1cc(O)ncn1 (stereo not shown) [Compound 3-6, Ethyl 3-biphenyl-4-yl-1-(6-hydroxypyrimidin-4-yl)-8-[(3-methylpyridin-2-yl)methyl]-2,4-dioxo-1,3,8-triazaspiro[4.5]decane-6-carboxylate], the IC50 (HIF-PHD2) was 0.5 to 20 nM.

Cc1cccnc1CN1CCC2(CC1)C(=O)N(c1ccc(-c3ccccc3)cc1)C(=O)N2C(=O)N[C@@H](C)C(=O)O [Compound 5-5, (2S)-2-[({3-biphenyl-4-yl-8-[(3-methylpyridin-2-yl)methyl]-2,4-dioxo-1,3,8-triazaspiro[4.5]dec-1-yl}carbonyl)amino]propanoic acid] showed an IC50 (HIF-PHD2; [1]) of 0.5 to 20 nM.

With Cc1cccnc1CN1CCC2(CC1)C(=O)N(c1ccc(-c3ccccc3)cc1)C(=O)N2C(=O)NC(C)(C)C(=O)O [Compound 5-3, 2-[({3-biphenyl-4-yl-8-[(3-methylpyridin-2-yl)methyl]-2,4-dioxo-1,3,8-triazaspiro[4.5]dec-1-yl}carbonyl)amino]-2-methylpropanoic acid] the IC50 (HIF-PHD2; [1]) was 0.5 to 20 nM.

Cc1cccnc1CN1CCC2(CC1)C(=O)N(c1ccc(-c3ccccc3)cc1)C(=O)N2c1cc(C(=O)O)ccn1 [Compound 1-5, 2-{3-biphenyl-4-yl-8-[(3-methylpyridin-2-yl)methyl]-2,4-dioxo-1,3,8-triazaspiro[4.5]dec-1-yl}isonicotinic acid] showed an IC50 (HIF-PHD2) of 0.5 to 20 nM.

Compound CCOC(=O)C1CN(Cc2ncccc2C)CCC12C(=O)N(c1ccc(-c3ccccc3)cc1)C(=O)N2c1cc(OC)ncn1 (stereo not shown) [Compound 3-9, Ethyl 3-biphenyl-4-yl-1-(6-methoxypyrimidin-4-yl)-8-[(3-methylpyridin-2-yl)methyl]-2,4-dioxo-1,3,8-triazaspiro[4.5]decane-6-carboxylate] has an IC50 (HIF-PHD2) of 0.5 to 20 nM.

In the case of Cc1cccnc1CN1CCC2(CC1)C(=O)N(c1ccc(-c3ccccc3)cc1)C(=O)N2C(=O)N[C@@H](CO)C(=O)O [Compound 5-6, N-({3-biphenyl-4-yl-8-[(3-methylpyridin-2-yl)methyl]-2,4-dioxo-1,3,8-triazaspiro[4.5]dec-1-yl}carbonyl)-L-serine], the IC50 (HIF-PHD2; [1]) is reported as 0.5 to 20 nM.

CCOC(=O)C1CN(Cc2ncccc2C)CCC12C(=O)N(c1ccc(-c3ccccc3)cc1)C(=O)N2c1nccc(OC)n1 (stereo not shown) [Compound 3-2, ethyl 3-biphenyl-4-yl-1-(4-methoxypyrimidin-2-yl)-8-[(3-methylpyridin-2-yl)methyl]-2,4-dioxo-1,3,8-triazaspiro[4.5]decane-6-carboxylate] showed an IC50 (HIF-PHD2) of 0.5 to 20 nM.

Compound CCCCOC(=O)c1[nH]cnc1CN1CCC2(CC1)C(=O)N(c1ccc(-c3ccccc3)cc1)C(=O)N2c1cc(OC)ncn1 [Compound 1-48, Butyl 4-{[3-biphenyl-4-yl-1-(6-methoxypyrimidin-4-yl)-2,4-dioxo-1,3,8-triazaspiro[4.5]dec-8-yl]methyl}-1-H-imidazole-5-carboxylate] has an IC50 (HIF-PHD2) of 0.5 to 20 nM.

COC(=O)c1ccc(-c2ccc(N3C(=O)N(c4ncccn4)C4(CCN(Cc5ncccc5C)CC4)C3=O)cc2)cc1 [Compound 1-61, Methyl 4′-{8-[(3-methylpyridin-2-yl)methyl]-2,4-dioxo-1-pyrimidin-2-yl-1,3,8-triazaspiro[4.5]dec-3-yl}biphenyl-4-carboxylate] gave an IC50 (HIF-PHD2) of 0.5 to 20 nM.

With COc1cccc(N2C(=O)N(c3ccc(-c4ccccc4)cc3)C(=O)C23CCN(Cc2ncccc2C)CC3)n1 [Compound 1-11, 3-biphenyl-4-yl-1-(6-methoxypyridin-2-yl)-8-[(3-methylpyridin-2-yl)methyl]-1,3,8-triazaspiro[4.5]decane-2,4-dione] the IC50 (HIF-PHD2) was 0.5 to 20 nM.

In the case of COc1ccnc(N2C(=O)N(c3ccc(-c4ccccc4)cc3)C(=O)C23CCN(Cc2nccn2CCC(=O)O)CC3)n1 [Compound 1-22, 3-(2-{[3-biphenyl-4-yl-1-(4-methoxypyrimidin-2-yl)-2,4-dioxo-1,3,8-triazaspiro[4.5]dec-8-yl]methyl}-1H-imidazol-1-yl)propanoic acid], the IC50 (HIF-PHD2) is reported as 0.5 to 20 nM.

For O=C(O)CN1CCC2(CC1)C(=O)N(c1ccc(-c3ccccc3)cc1)C(=O)N2c1ncccn1 [Compound 2-5, (3-biphenyl-4-yl-2,4-dioxo-1-pyrimidin-2-yl-1,3,8-triazaspiro[4.5]dec-8-yl)acetic acid], the IC50 (HIF-PHD2) was 0.5 to 20 nM.

Cc1cccnc1CN1CCC2(CC1)C(=O)N(c1ccc(-c3ccccc3)cc1)C(=O)N2c1ncc(O)cn1 [Compound 1-10, 3-biphenyl-4-yl-1-(5-hydroxypyrimidin-2-yl)-8-[(3-methylpyridin-2-yl)methyl]-1,3,8-triazaspiro[4.5]decane-2,4-dione] showed an IC50 (HIF-PHD2) of 0.5 to 20 nM.

For O=C(O)c1[nH]cnc1CN1CCC2(CC1)C(=O)N(c1ccc(-c3ccccc3)cc1)C(=O)N2c1cc(O)ncn1 [Compound 1-52, 4-{[3-biphenyl-4-yl-1-(6-hydroxypyrimidin-4-yl)-2,4-dioxo-1,3,8-triazaspiro[4.5]dec-8-yl]methyl}-1-H-imidazole-5-carboxylic acid], the IC50 (HIF-PHD2) was 0.5 to 20 nM.

CCCCOC(=O)c1[nH]cnc1CN1CCC2(CC1)C(=O)N(c1ccc(-c3ccccc3)cc1)C(=O)N2c1nccc(OC)n1 [Compound 1-47, Butyl 4-{[3-biphenyl-4-yl-1-(4-methoxypyrimidin-2-yl)-2,4-dioxo-1,3,8-triazaspiro[4.5]dec-8-yl]methyl}-1-H-imidazole-5-carboxylate] showed an IC50 (HIF-PHD2) of 20 to 50 nM.

Cc1cccnc1CN1CCC2(C(=O)N(c3ccc(-c4ccccc4)cc3)C(=O)N2c2nccc(O)n2)C(C(=O)O)C1 (stereo not shown) [Compound 3-4, 3-biphenyl-4-yl-1-(4-hydroxypyrimidin-2-yl)-8-[(3-methylpyridin-2-yl)methyl]-2,4-dioxo-1,3,8-triazaspiro[4.5]decane-6-carboxylic acid] showed an IC50 (HIF-PHD2) of 0.5 to 20 nM.

Cc1cccnc1CN1CCC2(CC1)C(=O)N(c1ccc(-c3ccccc3)cc1)C(=O)N2c1ccc(C#N)cn1 [Compound 1-7, 6-{3-biphenyl-4-yl-8-[(3-methylpyridin-2-yl)methyl]-2,4-dioxo-1,3,8-triazaspiro[4.5]dec-1-yl}nicotinonitrile] was tested, and the IC50 (HIF-PHD2) was 0.5 to 20 nM.

Cc1cccnc1CN1CCC2(CC1)C(=O)N(c1ccc(-c3ccc(CC(=O)O)cc3)cc1)C(=O)N2c1ncccn1 [Compound 1-67, (4′-{8-[(3-methylpyridin-2-yl)methyl]-2,4-dioxo-1-pyrimidin-2-yl-1,3,8-triazaspiro[4.5]dec-3-yl}biphenyl-4-yl)acetic acid] showed an IC50 (HIF-PHD2) of 20 to 50 nM.

Work on Cc1cccnc1CN1CCC2(CC1)C(=O)N(c1ccc(Br)cc1)C(=O)N2c1cc(-c2ccc(C(=O)O)cc2)ncn1 [Compound 7-15, 4-(6-{3-(4-bromophenyl)-8-[(3-methylpyridin-2-yl)methyl]-2,4-dioxo-1,3,8-triazaspiro[4.5]dec-1-yl}pyrimidin-4-yl)benzoic acid] yielded an IC50 (HIF-PHD2) of 0.5 to 20 nM.

CCOC(=O)C1CN(Cc2ncccc2C)CCC12C(=O)N(c1ccc(-c3ccccc3)cc1)C(=O)N2c1cc(O)ncn1 (single isomer, unassigned) [Compound 3-10, Ethyl 3-biphenyl-4-yl-1-(6-hydroxypyrimidin-4-yl)-8-[(3-methylpyridin-2-yl)methyl]-2,4-dioxo-1,3,8-triazaspiro[4.5]decane-6-carboxylate] showed an IC50 (HIF-PHD2) of 0.5 to 20 nM.

In the case of Cc1cccnc1CN1CCC2(CC1)C(=O)N(c1ccc(-c3ccccc3)cc1)C(=O)N2c1ccccc1 [Compound 1-4, 3-biphenyl-4-yl-8-[(3-methylpyridin-2-yl)methyl]-1-phenyl-1,3,8-triazaspiro[4.5]decane-2,4-dione], the IC50 (HIF-PHD2) is reported as 0.5 to 20 nM.
